Laboratory results: patent US7462345B2, “Radionuclide labeling of vitamin B12 and coenzymes thereof” (Mayo Foundation for Medical Education and Research, priority 1995, dated 2008)
Values joined by “and” are separate entries in the source; they are usually repeats but may differ in a detail not shown here. Equal values may be shown once.

How the values were obtained:
[1] = tested on: transplanted sarcoma; assay: Tumor imaging, mice with transplanted sarcoma, gamma well counting; format: in vivo; parameters: Fat activity, gamma well counting / Muscle activity, gamma well counting: unit not given here
Source text: All images for the in vivo studies were obtained on a GE 500 maxicamera using a LEAP collimator with a 20% window about the 140 keV energy peak of technetium, and a medium energy collimator with a 20% window about the 174 keV and 247 keV energy peaks of Indium. A 256×256 matrix with a dedicated pinnacle computer system was used to collect and analyze the data.

[2] = Gastrointestinal absorption after oral administration, modified Schillings test; format: in vivo, mice; parameters: Kidney activity, gamma well counting / Liver activity, gamma well counting / Pancreas activity, gamma well counting / Heart activity, gamma well counting / Spleen activity, gamma well counting: unit not given here
Method: B. Gastrointestinal Absorption: Methylcobalamin-b-(4-aminobutyl)-DTPA and DTPA alone were labeled as described above, with the exception that the 3 mCi Indium/300 μg/100 μl normal saline solutions were not diluted. […] The mice were sacrificed at 24 hrs, dissected, and studied as described above.
A modified Schillings test was performed on two mice. Specifically, each mouse received via subcutaneous and intraperitoneal administration, a 1000 μg loading dose of non-labeled methylcobalamin-b-(4-aminobutyl)amide-DTPA analogue. At 24 hrs, the mice were fed 2-3 drops of Indium-labeled methylcobalamin-b-(4-aminobutyl)amide-DTPA-complex. Urine and feces were collected from the three groups of mice after oral administration. The mice were sacrificed at 24 hours after ingestion of tracer and images and biodistribution data were obtained at that time.

[3] = Biodistribution in mice at 24 hours, gamma well counting; format: in vivo, Balb-C mice
[4] = 500 μCi intraperitoneal, 24 hours, tumor mice 19-24
[5] = approximately 100 μCi tailvein injection, tumor mice 25-30
[6] = approximately 30 μCi orally, 24 hrs, mice 13-18
[7] = approximately 30 μCi orally, 24 hrs, mice 13-18, BKG = background
[8] = 500 μCi intraperitoneal, 24 hours, mice 1-6
[9] = 500 μCi subcutaneously, mice 7-12

| Structure (SMILES) | Heart activity, gamma well counting [1, 4] | Kidney activity, gamma well counting [1, 4] | Pancreas activity, gamma well counting [1, 4] | Tumor activity, gamma well counting [1, 4] | Heart activity, gamma well counting [1, 5] | Lung activity, gamma well counting [1, 5] | Kidney activity, gamma well counting [2, 6] | Liver activity, gamma well counting [2, 6] | Pancreas activity, gamma well counting [2, 6] | Fat activity, gamma well counting [2, 7] | Heart activity, gamma well counting [2, 7] | Muscle activity, gamma well counting [2, 7] | Fat activity, gamma well counting [3, 8] | Heart activity, gamma well counting [3, 8] | Liver activity, gamma well counting [3, 8] | Lung activity, gamma well counting [3, 8] | Pancreas activity, gamma well counting [3, 8] | Heart activity, gamma well counting [3, 9] | Kidney activity, gamma well counting [3, 9] | Liver activity, gamma well counting [3, 9] | further results |
| --- | --- | --- | --- | --- | --- | --- | --- | --- | --- | --- | --- | --- | --- | --- | --- | --- | --- | --- | --- | --- | --- |
| O=C([O-])CN(CCN(CC(=O)[O-])CC(=O)[O-])CCN(CC(=O)[O-])CC(=O)[O-].[111In+3].[H+].[H+] [DTPA-^111In] | 5.0 and 8.0 and 9.7 | 116.5 and 180.7 and 231.2 | 7.1 and 11.3 and 13.9 | 52.8 and 69.3 and 73.1 | 0.94 and 0.61 and 0.85 | 1.7 and 0.87 and 0.93 | 0.64 and 0.54 and 0.59 | 0.28 and 0.21 and 0.30 | 0.93 and 0.96 and 0.61 | <BKG | <BKG | <BKG | 12.6 and 19.5 and 18.8 | 10.3 and 6.9 and 12.5 | 56.9 and 41.5 and 66.1 | 6.2 and 6.0 and 10.5 | 13.4 and 13.0 and 14.1 | 5.6 and 5.0 and 4.8 | 119.4 and 117.3 and 110.1 | 24.0 and 25.5 and 23.2 | Fat activity, gamma well counting [1, 4]: 13.7 and 17.9 and 19.2; Muscle activity, gamma well counting [1, 4]: 7.2 and 6.4 and 6.8; Fat activity, gamma well counting [1, 5]: 0.93 and 0.75 and 0.79; Kidney activity, gamma well counting [1, 5]: 14.0 and 9.9 and 10.2; Liver activity, gamma well counting [1, 5]: 1.6 and 1.3 and 1.4; Spleen activity, gamma well counting [1, 5]: 1.9 and 1.4 and 1.6; Tumor activity, gamma well counting [1, 5]: 5.0 and 2.8 and 3.4; concentration within the transplanted tumors, times less than that of adenosylcobalamin-DTPA-^111In ([1]; mouse, in vivo): 10-20 times; Spleen activity, gamma well counting [2, 6]: 0.62 and 0.67 and 0.48; Lung activity, gamma well counting [2, 7]: <BKG; activity in the heart, lungs, muscle, or fat tissue samples ([2]; oral): No activity was detected; radioactivity in urine and stool ([2]; oral): detected in urine and stool by two hours; absorption from the gastrointestinal tract ([2]; oral administration, mice): also absorbed from the gastrointestinal tract, but to a lesser degree; Muscle activity, gamma well counting [3, 8]: 5.4 and 5.6 and 5.0; Lung activity, gamma well counting [3, 9]: 5.4 and 5.3 and 5.0; Pancreas activity, gamma well counting [3, 9]: 6.0 and 6.7 and 5.9; Spleen activity, gamma well counting [3, 9]: 19.5 and 19.0 and 18.1; activity per organ or tissue sample, times less when compared to the methyl and adenosylcobalamin analogs ([3]; mouse, in vivo): 5-12 times |
| CC1=C2N=C(C=C3N=C(C(C)=C4[N-]C(C(CC(N)=O)C4(C)CCC(=O)NCC(C)OP(=O)([O-])OC4C(CO)OC(n5cnc6cc(C)c(C)cc65)C4O)C4(C)N=C1C(CCC(=O)NCCCCNC(=O)CN(CCN(CCN(CC(=O)[O-])CC(=O)[O-])CC(=O)[O-])CC(=O)[O-])C4(C)CC(N)=O)C(CCC(N)=O)C3(C)C)C(CCC(N)=O)C2(C)CC(N)=O.[111In+3].[CH2-]C1OC(n2cnc3c(N)ncnc32)C(O)C1O.[Co+3] (stereo not drawn) [adenosylcobalamin-b-(4-aminobutyl)-amide-DTPA-^111In] | 165.0 and 134.8 and 157.8 | 3886.9 and 3115.6 and 3592.8 | 445.0 and 242.7 and 439.0 | 954.7 and 1426.0 and 1183.1 | – | – | – | – | – | – | – | – | 101.4 and 147.3 and 102.8 | 134.7 and 189.4 and 171.2 | 943.3 and 823.4 and 768.6 | 130.9 and 180.1 and 113.1 | 304.2 and 319.9 and 310.3 | 35.0 and 29.8 and 31.3 | 621.4 and 700.5 and 601.7 | 126.4 and 111.7 and 115.8 | Liver activity, gamma well counting [1, 4]: 691.0 and 464.8 and 675.0; Lung activity, gamma well counting [1, 4]: 318.8 and 230.0 and 335.2; Spleen activity, gamma well counting [1, 4]: 576.3 and 309.5 and 478.3; tumor activity relative to heart, lungs, fat, and muscle ([1]; IP and IV routes, 24 hours): 4-12 times; tumor activity relative to liver, spleen, and pancreas ([1]; IP and IV routes, 24 hours): two to four times greater activity; uptake within the transplanted sarcoma ([1]; at 24 hours, visually and by gamma well counting): significant amount; Kidney activity, gamma well counting [3, 8]: 3717.5 and 3299.5 and 3462.7; Spleen activity, gamma well counting [3, 8]: 433.1 and 405.3 and 366.8; Lung activity, gamma well counting [3, 9]: 38.4 and 51.2 and 40.6; Pancreas activity, gamma well counting [3, 9]: 40.0 and 39.3 and 41.2 |
| CC1=C2N=C(C=C3N=C(C(C)=C4[N-]C(C(CC(N)=O)C4(C)CCC(=O)NCC(C)OP(=O)([O-])OC4C(CO)OC(n5cnc6cc(C)c(C)cc65)C4O)C4(C)N=C1C(CCC(=O)NCCCCNC(=O)CN(CCN(CCN(CC(=O)[O-])CC(=O)[O-])CC(=O)[O-])CC(=O)[O-])C4(C)CC(N)=O)C(CCC(N)=O)C3(C)C)C(CCC(N)=O)C2(C)CC(N)=O.[111In+3].[CH3-].[Co+3] (stereo not drawn) [methylcobalamin-b-(4-aminobutyl)-amide-DTPA-^111In] | – | – | – | – | 21.7 and 11.4 and 16.9 | 34.4 and 19.9 and 21.3 | 4.3 and 4.1 and 3.1 | 0.82 and 0.80 and 0.73 | 0.75 and 0.76 and 1.1 | <BKG | 0.54 and 0.50 | <BKG | – | – | – | – | – | – | – | – | Muscle activity, gamma well counting [1, 5]: 23.5 and 15.5 and 14.5; Pancreas activity, gamma well counting [1, 5]: 38.4 and 21.3 and 30.3; activity in the urine by gamma well counting ([2]; oral, mice not flushed with non-labeled methylcobalamin-b-(4-aminobutyl)amide-DTPA): no discernable activity was detected; radioactivity in urine ([2]; oral, mice that underwent the modified Schillings test (flushed)): detectable radioactivity within their urine at one hour |
